Test results from patent US10259808B2 (Genentech, Inc., priority 2015, dated 2019).
pIC50: −log10 of the molar value. Counter-ions that a name gives are not always drawn. Like-named read-outs stand apart in the source and are kept apart here.

Molecular target: T1, RORc ligand binding domain (Homo sapiens, UniProt P51449)
T1 sequence (P51449 269-508 limits assumed): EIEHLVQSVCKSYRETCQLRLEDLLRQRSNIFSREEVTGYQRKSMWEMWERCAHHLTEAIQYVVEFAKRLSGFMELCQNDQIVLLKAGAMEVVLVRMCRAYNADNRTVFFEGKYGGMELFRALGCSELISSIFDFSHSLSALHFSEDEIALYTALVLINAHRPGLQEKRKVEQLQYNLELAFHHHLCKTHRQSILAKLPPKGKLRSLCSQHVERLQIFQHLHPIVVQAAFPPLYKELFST
Test: In vitro RORc ligand binding assay (25-[3H]hydroxycholesterol displacement)
Description: This assay was used to determine a compound's potency in inhibiting activity of RORc by determining, Kiapp, IC50, or percent inhibition values.
On day of the assay, 100 uL of 0.05% CHAPS (in deionized H2O) was added to all wells of the GFB Unifilter plate and allowed soak for 1 h. A wash buffer of 50 mM HEPES (pH 7.4), 150 mM NaCl, and 5 mM MgCl2 was prepared to wash the filter plate. To prepare an assay buffer, BSA was added to the wash buffer to reach 0.01% and DTT was added to reach 1 mM.
The 20× compound stocks were diluted in DMSO with Assay Buffer 4-fold to reach 5× the final test concentration in 25% DMSO (10 uL compound+30 uL Assay Buffer). Solutions were mixed by aspiration several times with a pipette set on 50 uL volume.
For two point screening, 10 mM stock compound solutions were diluted in DMSO to obtain 200 uM (20× the high test concentration) and then diluted 10-fold further to reach 20 uM (20× the low test concentration). The 20× stocks were diluted 4-fold with Assay Buffer (10 uL compound+30 uL Assay Buffer) to reach 5× the test concentrations (50 uM and 5 uM) and 10 uL were added to two assay plates for the duplicate wells. With each concentration tested on 2 plates, each set of 80 compounds used 4 assay plates (1 uM and 10 uM, with n=2).
Nonspecific Binding (NSB) Samples, Total Binding (TB) Samples and No Receptor (No R) Samples
For 25-hydroxycholesterol in 25% DMSO/75% Assay Buffer; 10 uL per well was used for NSB samples. Wells for Total Binding and No Receptor sample determination contained 10 uL of 25% DMSO/75% Assay Buffer per well.
Radioligand 25-[^3H]Hydroxycholesterol) Preparation
Add 20 uL to all wells to reach 6 nM final in the assay.
Stock receptor solution was diluted in assay buffer to obtain 1.5 ug/mL in Assay Buffer. 20 uL was added to all wells. For No R samples, 20 uL Assay Buffer was substituted for receptor solution.
Sample addition to Plates and Incubation
Assay plates were 96-well polypropylene V-bottom plates. […] 10 uL of 25% DMSO/75% Assay Buffer was added to Total Binding or No Receptor wells. 10 uL of 5 uM 25-hydroxycholesterol in 25% DMSO/75% Assay Buffer was added to NSB wells. […] 20 uL of 1.5 ug/mL RORc receptor was added to wells (or 40 uL Assay Buffer to No R wells). Following addition to the wells, the plates were incubated 3 h at 25° C.
Using a Packard Filtermate Harvester, the filter plate were washed 4 times following transfer of the incubated samples. Plates were dry-filtered completely (2 h at 50° C. or overnight at room temperature). 50 uL Microscint 0 was added to all wells and read on Topcount protocol Inverted.
Final concentrations were as follows: 50 mM HEPES buffer (pH 7.4); 150 mM NaCl; 1 mM DTT; 5 mM MgCl2; 0.01% BSA; 5% DMSO; 0.6 ug/mL RORc receptor; 6 nM 25-[^3H]hydroxycholesterol. For NSB wells, 1 uM 25-hydroxycholesterol was also present.

| SMILES | pIC50 | pIC50 (IC50 values for RORc) |
| --- | --- | --- |
| C[C@H]1CC[C@H](c2ccccc2)S(=O)(=O)N1Cc1ccc(C2(C(=O)n3nccc3N)CCOCC2)cc1F | 7.71 |  |
| Cc1nnc(COCC2(c3ccc(CN4[C@@H](C)CC[C@H](c5ccccc5)S4(=O)=O)c(F)c3)CCOCC2)o1 | 7.04 |  |
| C[C@H]1CC[C@H](c2ccccc2)S(=O)(=O)N1Cc1ccc(C2(C(=O)NC3CCOCC3)CCOCC2)cc1F | 6.77 |  |
| C[C@H]1CC[C@H](c2ccccc2)S(=O)(=O)N1Cc1cc(F)c(C2(c3c[nH]c(=O)o3)CC(O)C2)cc1F (mixture of isomers) [Example 163, 5-[1-[2,5-difluoro-4-[[rac-(3S,6R)-3-methyl-1,1-dioxo-6-phenyl-thiazinan-2-yl]methyl]phenyl]-3-hydroxy-cyclobutyl]-3H-oxazol-2-one] |  | 8.37 |
| C[C@H]1CC[C@@H](c2ccccc2)S(=O)(=O)N1Cc1cc(F)c([C@]2(c3c[nH]c(=O)o3)C[C@@](O)(C3(C)CC3)C2)cc1F (racemic) [Example 166, 5-[1-[2,5-difluoro-4-[[rac-(3S,6S)-3-methyl-1,1-dioxo-6-phenyl-thiazinan-2-yl]methyl]phenyl]-3-hydroxy-3-(1-methylcyclopropyl)cyclobutyl]-3H-oxazol-2-one] | 7.81 |  |
| C[C@H]1CC[C@H](c2ccccc2)S(=O)(=O)N1Cc1cc(F)c([C@]2(c3nn(C)c(=O)o3)C[C@](C)(O)C2)cc1F (racemic) [Example 167] |  | 7.72 |
| C[C@H]1CC[C@H](c2ccccc2)S(=O)(=O)N1Cc1cc(F)c([C@]2(c3nn(C)c(=O)[nH]3)C[C@@](C)(O)C2)cc1F (racemic) [Example 168, 5-[1-[2,5-difluoro-4-[[rac-(3S,6R)-3-methyl-1,1-dioxo-6-phenyl-thiazinan-2-yl]methyl]phenyl]-3-hydroxy-3-methyl-cyclobutyl]-2-methyl-4H-1,2,4-triazol-3-one] | 7.40 |  |
| COC[C@]1(O)C[C@@](c2n[nH]c(=O)o2)(c2cc(F)c(CN3[C@@H](C)CC[C@H](c4ccccc4)S3(=O)=O)cc2F)C1 (racemic) [Example 169, 5-[1-[2,5-difluoro-4-[[rac-(3S,6R)-3-methyl-1,1-dioxo-6-phenyl-thiazinan-2-yl]methyl]phenyl]-3-hydroxy-3-(methoxymethyl)cyclobutyl]-3H-1,3,4-oxadiazol-2-one] | 8.19 |  |
| C[C@H]1CC[C@H](c2ccccc2)S(=O)(=O)N1Cc1cc(F)c([C@]2([C@@H](O)Cc3ncn[nH]3)C[C@](C)(O)C2)cc1F (racemic) [Example 170, 3-[2,5-difluoro-4-[[rac-(3S,6R)-3-methyl-1,1-dioxo-6-phenyl-thiazinan-2-yl]methyl]phenyl]-1-methyl-3-[rac-(1S)-1-hydroxy-2-(1H-1,2,4-triazol-5-yl)ethyl]cyclobutanol] | 7.53 |  |
| C[C@H]1CC[C@H](c2ccccc2)S(=O)(=O)N1Cc1cc(F)c([C@]2([C@H](O)Cc3ncn[nH]3)C[C@](C)(O)C2)cc1F (racemic) [Example 171, 3-[2,5-difluoro-4-[[rac-(3S,6R)-3-methyl-1,1-dioxo-6-phenyl-thiazinan-2-yl]methyl]phenyl]-1-methyl-3-[rac-(1R)-1-hydroxy-2-(1H-1,2,4-triazol-5-yl)ethyl]cyclobutanol] | 7.30 |  |
| C[C@H]1CC[C@H](c2ccccc2)S(=O)(=O)N1Cc1cc(F)c([C@]2([C@H]3CNC(=O)O3)C[C@](C)(O)C2)cc1F (racemic) [Example 172, rac-(5S)-5-[1-[2,5-difluoro-4-[[rac-(3S,6R)-3-methyl-1,1-dioxo-6-phenyl-thiazinan-2-yl]methyl]phenyl]-3-hydroxy-3-methyl-cyclobutyl]oxazolidin-2-one] | 7.28 |  |
| C[C@H]1CC[C@H](c2ccccc2)S(=O)(=O)N1Cc1cc(F)c([C@]2(c3n[nH]c(=O)o3)C[C@](C)(N)C2)cc1F (racemic) [Example 173, 5-[3-amino-1-[2,5-difluoro-4-[[rac-(3S,6R)-3-methyl-1,1-dioxo-6-phenyl-thiazinan-2-yl]methyl]phenyl]-3-methyl-cyclobutyl]-3H-1,3,4-oxadiazol-2-one; hydrochloride] | 6.74 |  |
| C[C@H]1CC[C@H](c2ccccc2)S(=O)(=O)N1Cc1cc(F)c([C@]2(c3nn(CC#N)c(=O)o3)C[C@](C)(O)C2)cc1F (racemic) [Example 174, 2-[5-[1-[2,5-difluoro-4-[[rac-(3S,6R)-3-methyl-1,1-dioxo-6-phenyl-thiazinan-2-yl]methyl]phenyl]-3-hydroxy-3-methyl-cyclobutyl]-2-oxo-1,3,4-oxadiazol-3-yl]acetonitrile] | 7.64 |  |
| C[C@H]1CC[C@H](c2ccccc2)S(=O)(=O)N1Cc1cc(F)c([C@]2(c3noc(=O)[nH]3)C[C@@](C)(O)C2)cc1F (racemic) [Example 175, 3-[1-[2,5-difluoro-4-[[rac-(3S,6R)-3-methyl-1,1-dioxo-6-phenyl-thiazinan-2-yl]methyl]phenyl]-3-hydroxy-3-methyl-cyclobutyl]-4H-1,2,4-oxadiazol-5-one] | 7.21 |  |
| C[C@H]1CC[C@H](c2ccccc2)S(=O)(=O)N1Cc1cc(F)c([C@]2(c3n[nH]c(=O)o3)C[C@@](O)(CC#N)C2)cc1F (racemic) [Example 176, 2-[3-[2,5-difluoro-4-[[rac-(3S,6R)-3-methyl-1,1-dioxo-6-phenyl-thiazinan-2-yl]methyl]phenyl]-1-hydroxy-3-(2-oxo-3H-1,3,4-oxadiazol-5-yl)cyclobutyl]acetonitrile] | 8.27 |  |
| C[C@H]1CC[C@H](c2ccccc2)S(=O)(=O)N1Cc1cc(F)c(C2(c3c[nH]c(=O)o3)CC(O)C2)cc1F (mixture of isomers) [Example 177, 5-[1-[2,5-difluoro-4-[[rac-(3S,6R)-3-methyl-1,1-dioxo-6-phenyl-thiazinan-2-yl]methyl]phenyl]-3-hydroxy-cyclobutyl]-3H-oxazol-2-one] |  | 8.37 |
| C[C@H]1CC[C@H](c2ccccc2)S(=O)(=O)N1Cc1cc(F)c([C@]2(Cn3cn[nH]c3=O)C[C@](C)(O)C2)cc1F (racemic) [Example 178, 4-[[1-[2,5-difluoro-4-[[rac-(3S,6R)-3-methyl-1,1-dioxo-6-phenyl-thiazinan-2-yl]methyl]phenyl]-3-hydroxy-3-methyl-cyclobutyl]methyl]-1H-l,2,4-triazol-5-one] | 8.21 |  |
| C[C@H]1CC[C@H](c2ccccc2)S(=O)(=O)N1Cc1cc(F)c([C@]2(CN3C(=O)CNC3=O)C[C@](C)(O)C2)cc1F (racemic) [Example 179, 3-[[1-[2,5-difluoro-4-[[rac-(3S,6R)-3-methyl-1,1-dioxo-6-phenyl-thiazinan-2-yl]methyl]phenyl]-3-hydroxy-3-methyl-cyclobutyl]methyl]imidazolidine-2,4-dione] | 5.16 |  |
| C[C@H]1CC[C@H](c2ccccc2)S(=O)(=O)N1Cc1cc(F)c([C@]2(COc3cnccn3)C[C@](C)(O)C2)cc1F (racemic) [Example 180, 3-[2,5-difluoro-4-[[rac-(3S,6R)-3-methyl-1,1-dioxo-6-phenyl-thiazinan-2-yl]methyl]phenyl]-1-methyl-3-(pyrazin-2-yloxymethyl)cyclobutanol] | 8.10 |  |
| C[C@H]1CC[C@H](c2ccccc2)S(=O)(=O)N1Cc1cc(F)c([C@]2(NC(=O)c3csnn3)C[C@](C)(O)C2)cc1F (racemic) [Example 181, N-[1-[2,5-difluoro-4-[[rac-(3S,6R)-3-methyl-1,1-dioxo-6-phenyl-thiazinan-2-yl]methyl]phenyl]-3-hydroxy-3-methyl-cyclobutyl]thiadiazole-4-carboxamide] | 7.89 |  |
